Consider one compound from patent US8686001B2, “Medicament for treating glaucoma comprising as an active ingredient cyclodextrin-clathrate compound of cilostazol” (Otsuka Pharmaceutical Co., Ltd., priority 2007, dated 2014).

Series [1] in a line: Comparative experiment of manufacturing method: solubility of cilostazol in HP-β-CD, dissolving method (1) vs (2). The class given is physicochemical. As to the method: To cilostazol suspension (0.5%, suspended in physiological saline) was added HP-β-CD powder so that the final concentration of the HP-β-CD should be 5-20%, and the mixture was completely dissolved (the procedure is termed as “dissolving method (1)”). On the contrary, to HP-β-CD solution (5-20%, dissolved in physiological saline) was added cilostazol powder (final concentration: 0.5%), and the mixture was completely dissolved (the procedure is termed as “dissolving method (2)”). Both the above solutions were stirred at 25° C. for 24 hours under the shade, then filtrated with membrane filter (pore size: 0.2 μm), and compared about the solubility of the solutions. […] Actually, it needed 10 minutes' stirring for the solution derived from dissolving method (1) to reach the state of the dissolution curve shown in FIG. 1. […] (The above concentrations are shown as weight/volume %.)

The nature of series [2]: Dissolution experiment of cilostazol nano (nano-CLZ) in HP-β-CD, dissolving method (1) vs (2). The class given is physicochemical. As to the method: CLZ and an excipient were mixed in a ratio of about 80%:20% to give a nano-CLZ powder. To a nano-CLZ suspension (0.5% CLZ suspension: which was prepared by suspending 120 mg of the nano-CLZ powder in 20 mL of purified water), HP-β-CD powder was added and the mixture was dissolved so that the final concentration of HP-β-CD should be 5-20% (dissolving method (1)); while 120 mg of the nano-CLZ powder was added to a HP-β-CD solution (which was prepared by dissolving HP-β-CD in purified water so that the final concentration of HP-β-CD should be 5-20%), and the mixture was dissolved (the final concentration of CLZ is 0.5%) (dissolving method (2)). Both the above solutions were stirred at 25° C. for 24 hours under the shade, then filtrated with membrane filter (pore size: 0.2 μm), and compared about the solubility of the solutions.
Actually, it needed 30 minutes' stirring for the solution derived from dissolving method (1) to reach the state of the dissolution curve shown in FIG. 2. […] (The above concentrations are shown as weight/volume %.)

On to `O=C1CCc2cc(OCCCCc3nnnn3C3CCCCC3)ccc2N1` [cilostazol, 6-[4-(1-cyclohexyl-1H-tetrazol-5-yl)butoxy]-3,4-dihydrocarbostyril], for which the “solubility of cilostazol, dissolving method (1) compared with dissolving method (2)” value is given as “tended to increase more” in series [1] (0.5% cilostazol, 5-20% HP-β-CD in physiological saline, stirred 25° C. 24 hours under the shade, 0.2 μm filtrate, FIG. 1) and “tended to increase more” in series [2] (nano-CLZ powder, 0.5% CLZ, 5-20% HP-β-CD in purified water, stirred 25° C. 24 hours under the shade, 0.2 μm filtrate, FIG. 2). The “stirring needed to reach the state of the dissolution curve” value in series [1] (dissolving method (1): HP-β-CD powder added to cilostazol suspension, FIG. 1) worked out at 10 min; in series [2] (nano-CLZ, dissolving method (1), FIG. 2), 30 min. In addition, in series [1] (dissolving method (2): cilostazol powder added to HP-β-CD solution), the “solubility after 10 minutes stirring relative to the solubility shown in FIG. 1” value is “one fifth or less”. In addition, the “solubility after 30 minutes stirring relative to the solubility shown in FIG. 2” value in series [2] (nano-CLZ, dissolving method (2)) is recorded as “half or less”.
